Values of other authors as cited in patent US20100260755A1, “IBUDILAST AND IMMUNOMODULATORS COMBINATION” (MediciNova, Inc., priority 2009, published 2010).

Assays:
[1] = tested on: experimental autoimmune encephalomyelitis; conditions: in vivo
[2] = tested on: multiple sclerosis patients; conditions: daily injections, exacerbating-remitting MS
[3] = tested on: T-cells isolated from peripheral blood of MS patients; conditions: in vitro

In the case of Glatiramer acetate, the “effect on experimental autoimmune encephalomyelitis (EAE)” value [1] is given as “suppress”, the “exacerbations versus control patients” value [2] is given as “fewer exacerbations” and the “increases in disability status versus control patients” value [2] is given as “smaller increases”. For the same substance, the “production of inflammatory mediators TNF-α, nitric oxide, superoxide by glial cells” value (glial cells) was “effectively suppress” and the “IL-5 and IL-13 cytokine secretion” value [3] was “induces”.
